Measurements reported in ChEMBL document CHEMBL3872201, “Synthesis and antiproliferative activity of a natural like glycoconjugate polycyclic compound” (2016).
Activity calls are given as the source filed them. The calls are words filed in the database; no cut-off is given here.

Assays:
[1] = Antiproliferative activity against human TK10 cells after 48 hrs by sulforhodamine B assay; format: functional; conditions: TK-10, 48 h
[2] = Antiproliferative activity against human 786-0 cells after 48 hrs by sulforhodamine B assay; format: functional; conditions: 786-0, 48 h
[3] = Antiproliferative activity against human HOP92 cells after 48 hrs by sulforhodamine B assay; format: functional; conditions: HOP-92, 48 h
[4] = Antiproliferative activity against human BT549 cells after 48 hrs by sulforhodamine B assay; format: functional; conditions: BT-549, 48 h
[5] = Cell cycle arrest in human MDA-MB-231 cells assessed as cell enlargement at 5 to 10 uM after 8 days by light microscopic analysis; format: functional, cell-based
MDA-MB-231 [6] = assay: Effect on cell cycle regulatory protein in human MDA-MB-231 cells assessed as p21 level at 5 uM after 48 hrs by Western blot analysis relative to control; format: functional
[7] = Antiproliferative activity against human MDA-MB-435 cells after 48 hrs by sulforhodamine B assay; format: functional; conditions: MDA-MB-435, 48 h
[8] = Antiproliferative activity against human HCT116 cells after 48 hrs by sulforhodamine B assay; format: functional; conditions: HCT-116, 48 h
[9] = Antiproliferative activity against human U251 cells after 48 hrs by sulforhodamine B assay; format: functional; conditions: U-251, 48 h
[10] = Cell cycle arrest in human MDA-MB-231 cells assessed as accumulation at G0/G1 phase at 5 uM after 48 hrs by propidium iodide staining based flow cytometric analysis (reference value: 67%); format: functional
[11] = Cell cycle arrest in human MDA-MB-231 cells assessed as accumulation at G0/G1 phase at 10 uM after 48 hrs by propidium iodide staining based flow cytometric analysis (reference value: 67%); format: functional
[12] = Antiproliferative activity against human KM12 cells after 48 hrs by sulforhodamine B assay; format: functional; conditions: KM12, 48 h
MDA-MB-231 [13] = assay: Effect on cell cycle regulatory protein in human MDA-MB-231 cells assessed as p21 level at 10 uM after 24 hrs by Western blot analysis relative to control; format: functional
[14] = Cell cycle arrest in human MDA-MB-231 cells assessed as accumulation at G0/G1 phase at 5 uM after 72 hrs by propidium iodide staining based flow cytometric analysis (reference value: 69.3%); format: functional
MDA-MB-231 [15] = assay: Effect on cell cycle regulatory protein in human MDA-MB-231 cells assessed as p21 level at 5 uM after 24 hrs by Western blot analysis relative to control; format: functional
MDA-MB-231 [16] = assay: Effect on cell cycle regulatory protein in human MDA-MB-231 cells assessed as cdc2 level at 5 uM after 24 hrs by Western blot analysis relative to control; format: functional
[17] = Antiproliferative activity against human SF539 cells after 48 hrs by sulforhodamine B assay; format: functional; conditions: SF-539, 48 h
[18] = Antiproliferative activity against human Caki1 cells after 48 hrs by sulforhodamine B assay; format: functional; conditions: CAKI-1, 48 h
[19] = Antiproliferative activity against human SK-MEL-28 cells after 48 hrs by sulforhodamine B assay; format: functional; conditions: SK-MEL-28, 48 h
[20] = Antiproliferative activity against human SR cells after 48 hrs by sulforhodamine B assay; format: functional
[21] = Antiproliferative activity against human A549/ATCC cells after 48 hrs by sulforhodamine B assay; format: functional; conditions: A549, 48 h
[22] = Cell cycle arrest in human MDA-MB-231 cells assessed as accumulation at G0/G1 phase at 10 uM after 72 hrs by propidium iodide staining based flow cytometric analysis (reference value: 69.3%); format: functional
[23] = Antiproliferative activity against human COLO205 cells after 48 hrs by sulforhodamine B assay; format: functional; conditions: COLO 205, 48 h
[24] = Antiproliferative activity against human OVCAR4 cells after 48 hrs by sulforhodamine B assay; format: functional; conditions: OVCAR-4, 48 h
[25] = Antiproliferative activity against human A498 cells after 48 hrs by sulforhodamine B assay; format: functional; conditions: A498, 48 h
[26] = Antiproliferative activity against human UACC257 cells after 48 hrs by sulforhodamine B assay; format: functional; conditions: UACC-257, 48 h
[27] = Cell cycle arrest in human MDA-MB-231 cells assessed as accumulation at subG0/G1 phase at 10 uM after 48 hrs by propidium iodide staining based flow cytometric analysis (reference value: 8.8%); format: functional
[28] = read-out: LC50 (the source's name)

C=C1c2c(C)nn(-c3ccc(C#CCO[C@@H]4O[C@H](CO)[C@@H](O)[C@H](O)[C@H]4O)cc3)c2N(C)C23CC1C1(C)c4c(C)nn(-c5ccc(C#CCO[C@@H]6O[C@H](CO)[C@@H](O)[C@H](O)[C@H]6O)cc5)c4N(C)C(C)(CC12)C3 (stereo not given in full)
GI50 [1]: 2.01 µM | TGI [1]: 4.04 µM | CC50 [1, 28]: 8.09 µM | GI50 [2]: 2.66 µM | TGI [2]: 7.78 µM | CC50 [2, 28]: 29.6 µM | GI50 [3]: 0.43 µM | TGI [3]: 2.52 µM | CC50 [3, 28]: 8.63 µM | GI50 [4]: 1.3 µM | TGI [4]: 2.97 µM | CC50 [4, 28]: 6.77 µM | Activity [5]: Active | fold change (FC) (MDA-MB-231 [6]): 0.2 | GI50 [7]: 1.67 µM | TGI [7]: 3.77 µM | CC50 [7, 28]: 8.5 µM | GI50 [8]: 1.27 µM | TGI [8]: 2.97 µM | GI50 [9]: 1.19 µM | TGI [9]: 2.59 µM | CC50 [9, 28]: 5.61 µM | Activity [10]: 64.3% | Activity [11]: 61.3% | GI50 [12]: 1.44 µM | TGI [12]: 2.9 µM | CC50 [12, 28]: 5.84 µM | fold change (FC) (MDA-MB-231 [13]): 1 | Activity [14]: 74% | fold change (FC) (MDA-MB-231 [15]): 0.1 | fold change (FC) (MDA-MB-231 [16]): 0.9 | GI50 [17]: 1.78 µM | TGI [17]: 3.33 µM | CC50 [17, 28]: 6.22 µM | GI50 [18]: 2.81 µM | TGI [18]: 11.6 µM | CC50 [18, 28]: 49 µM | GI50 [19]: 1.9 µM | TGI [19]: 3.52 µM | CC50 [19, 28]: 6.5 µM | GI50 [20]: 3.28 µM | TGI [20]: 100 µM | CC50 [20, 28]: 100 µM | GI50 [21]: 1.68 µM | TGI [21]: 4.09 µM | CC50 [21, 28]: 9.98 µM | Activity [22]: 61.8% | GI50 [23]: 1.47 µM | TGI [23]: 2.88 µM | CC50 [23, 28]: 5.63 µM | GI50 [24]: 1.68 µM | TGI [24]: 9.94 µM | CC50 [24, 28]: 31.8 µM | GI50 [25]: 1.5 µM | TGI [25]: 3.18 µM | CC50 [25, 28]: 6.72 µM | GI50 [26]: 1.82 µM | TGI [26]: 4.56 µM | CC50 [26, 28]: 15.4 µM | Activity [27]: 4.6%
